Calls of active or inactive are those of the source. The calls are words filed in the database; no cut-off is given here.
Tests used:
[1] = test system: MCF7; assay: Cytotoxicity against human MCF7 cells assessed as reduction in cell viability after 72 hrs by MTT assay; type: functional, cell-based; details: MCF7, 72 h
[2] = test system: PC-3; assay: Cytotoxicity against human PC3 cells assessed as reduction in cell viability after 72 hrs by MTT assay; type: functional, cell-based; details: PC-3, 72 h
[3] = test system: MDA-MB-231; assay: Cell cycle arrest in human MDA-MB-231 cells assessed as accumulation at S phase at 3 uM after 24 hrs by propidium iodide/RNase A staining-based flow cytometric analysis (reference value: 23.07%); type: functional
[4] = test system: MDA-MB-231; assay: Cell cycle arrest in human MDA-MB-231 cells assessed as accumulation at G2 phase at 12 uM after 24 hrs by propidium iodide/RNase A staining-based flow cytometric analysis (reference value: 27.76%); type: functional
[5] = test system: MDA-MB-231; assay: Induction of apoptosis in human MDA-MB-231 cells assessed as late apoptotic cells at 4 uM after 48 hrs by Annexin-V-FITC/propidium iodide staining based flow cytometry (reference value: 2.38%); type: functional
[6] = test system: MDA-MB-231; assay: Induction of apoptosis in human MDA-MB-231 cells assessed as necrotic cells at 6 uM after 48 hrs by Annexin-V-FITC/propidium iodide staining based flow cytometry (reference value: 1.21%); type: functional
[7] = test system: MDA-MB-231; assay: Induction of apoptosis in human MDA-MB-231 cells assessed as downregulation of Bcl-2 protein expression at 3 to 12 uM after 48 hrs by Western blot analysis; type: functional, cell-based
[8] = target: Epidermal growth factor receptor (Homo sapiens) (UniProt P00533); assay: Inhibition of EGFR in human MCF7 cells assessed as reduction in phosphorylated PI3K expression after 8 hrs by Western blot analysis; type: cell-based
[9] = test system: MCF7; assay: Effect on total EGFR protein level in human MCF7 cells up to 12 uM after 8 hrs by Western blot analysis; type: ADME, cell-based; details: mcf7, 8 h
[10] = target: Epidermal growth factor receptor (Homo sapiens) (UniProt P00533); assay: Inhibition of EGFR phosphorylation at Y1045 residues in human MDA-MB-231 cells after 8 hrs by Western blot analysis; type: cell-based

Epidermal growth factor receptor (Homo sapiens), sequence (P00533 whole entry): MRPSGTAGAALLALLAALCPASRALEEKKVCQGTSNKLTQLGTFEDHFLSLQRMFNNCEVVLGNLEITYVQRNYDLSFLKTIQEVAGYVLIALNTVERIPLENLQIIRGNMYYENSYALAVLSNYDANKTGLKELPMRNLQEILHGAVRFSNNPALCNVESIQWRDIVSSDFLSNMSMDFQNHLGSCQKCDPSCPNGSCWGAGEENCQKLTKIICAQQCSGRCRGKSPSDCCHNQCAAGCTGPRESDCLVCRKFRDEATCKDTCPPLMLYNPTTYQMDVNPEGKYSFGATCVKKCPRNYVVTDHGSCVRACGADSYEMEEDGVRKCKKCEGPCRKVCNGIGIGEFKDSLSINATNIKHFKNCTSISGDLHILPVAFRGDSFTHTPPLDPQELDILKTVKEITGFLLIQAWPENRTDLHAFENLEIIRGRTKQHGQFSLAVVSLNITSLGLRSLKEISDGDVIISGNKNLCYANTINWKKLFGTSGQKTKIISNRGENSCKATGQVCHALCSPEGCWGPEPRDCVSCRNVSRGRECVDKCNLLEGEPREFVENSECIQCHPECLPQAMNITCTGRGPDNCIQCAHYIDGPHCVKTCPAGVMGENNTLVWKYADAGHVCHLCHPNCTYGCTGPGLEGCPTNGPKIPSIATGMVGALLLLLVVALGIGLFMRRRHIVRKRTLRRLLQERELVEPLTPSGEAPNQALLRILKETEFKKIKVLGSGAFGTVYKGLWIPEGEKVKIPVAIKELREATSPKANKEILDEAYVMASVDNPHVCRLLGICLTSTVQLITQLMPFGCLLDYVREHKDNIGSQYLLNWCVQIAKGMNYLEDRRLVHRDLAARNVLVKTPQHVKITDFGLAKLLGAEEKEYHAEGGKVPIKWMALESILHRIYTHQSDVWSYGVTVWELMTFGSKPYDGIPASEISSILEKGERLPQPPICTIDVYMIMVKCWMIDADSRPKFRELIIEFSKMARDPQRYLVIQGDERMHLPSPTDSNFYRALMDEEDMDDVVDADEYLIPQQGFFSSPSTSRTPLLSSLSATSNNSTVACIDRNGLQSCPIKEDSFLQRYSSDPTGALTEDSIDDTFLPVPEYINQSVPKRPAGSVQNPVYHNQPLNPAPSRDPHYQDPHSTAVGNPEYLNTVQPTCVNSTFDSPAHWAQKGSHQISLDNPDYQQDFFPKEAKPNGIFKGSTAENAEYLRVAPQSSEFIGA

- inhibition [8]: Dose-dependent effect
- inhibition [10]: Dose-dependent effect
Compound: FC(F)(F)c1ccc(CSc2nc(Nc3ccc(C(F)(F)F)cc3)c3ccccc3n2)cc1
- IC50 [1]: 5.1 µM
- IC50 [2]: 7.88 µM
- Activity [3]: 18.96%
- Activity [4]: 11.69%
- Activity [5]: 15.3%
- Activity [6]: 2.49%
- Activity [7]: Active
- Activity [9]: Non-Toxic

Source: ChEMBL document CHEMBL4393664, “2,4-Disubstituted quinazolines targeting breast cancer cells via EGFR-PI3K” (Eur J Med Chem, 2019)
